Experimental data as given in patent publication US12044651B2, “Sensor device and methods” (SCENTIAN BIO LIMITED, priority 2016, dated 2024).

Legend:
Or22a [1] = target: T1, Or22a (Drosophila melanogaster, UniProt P81909); assay: EIS sensor, Or22a liposomes on gold electrode (Example 1); type: binding; details: Or22a liposomes, EIS
T1 sequence (P81909 1-397): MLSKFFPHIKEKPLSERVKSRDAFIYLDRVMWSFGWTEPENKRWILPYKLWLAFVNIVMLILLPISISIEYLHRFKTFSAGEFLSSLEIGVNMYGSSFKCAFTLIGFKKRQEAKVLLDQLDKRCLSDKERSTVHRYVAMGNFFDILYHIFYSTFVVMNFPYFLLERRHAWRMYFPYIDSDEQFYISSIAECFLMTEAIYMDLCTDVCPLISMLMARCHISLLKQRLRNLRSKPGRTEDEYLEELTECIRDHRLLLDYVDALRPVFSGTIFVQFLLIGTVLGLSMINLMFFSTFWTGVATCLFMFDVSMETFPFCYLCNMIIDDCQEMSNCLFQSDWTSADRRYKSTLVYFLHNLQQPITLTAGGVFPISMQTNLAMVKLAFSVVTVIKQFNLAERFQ
Procedure: Liposomes were prepared using a phospholipid solution produced by evaporating solutions containing: phosphatidylethanolamine (PE), phosphatidylserine (PS), phosphatidylcholine (PC), and cholesterol (CH) at a molar ratio of 5:3:3:1 in a small glass tube under a stream of N2 gas, then desiccating under vacuum for 1 h. […] To promote the formation of liposomes, 10 freeze/thaw steps were performed by transferring the tube from liquid nitrogen to a 40° C. water bath. Liposomes were then sized by passing the lipid solution 11 times through a 100-nm polycarbonate membrane using an Avestin LiposoFAST extruder unit (Avestin, Germany). Glycerol was added at 10% of the final volume and aliquots at 10 mg/mL were snap frozen in liquid nitrogen and stored at -80° C. Prior to their use, liposomes were defrosted on ice and then destabilized by incubating with 0.2% CHAPS for 15 min at room temperature. Then 200 μg of purified odorant receptor^14 was added to 1 mg of liposomes and rotated at 10 rpm for 1 h at room temperature. […] The Bio-Beads were removed after each incubation period. The OR integrated liposomes were pelleted by centrifugation at 100,000 g for 1 h, and were resuspended in 500 μL of rehydration buffer. Integration of OrXs into liposomes was assessed by density gradient ultracentrifugation (DGU) using Accudenz (Accurate Chemical & Scientific Corporation, USA). […] The sample was then centrifuged at 100,000 g for 4 h at 4° C. Liposomes will float to the top of the gradient after Accudenz DGU due to their low density. 1.3 Electrode Cleaning Gold disk (2 mm) electrodes were cleaned with polishing with Alumina paste for 2 minutes, ultra-sonicated in pure ethanol and then Milli-Q water for 5 minutes each. […] Charge transfer resistance (Rct) of electrodes were calculated by fitting obtained data to a Randles' equivalent circuit [Rs+CPE/(Rct+W)] comprising of a solution resistance (Rs) in series with a constant phase element (CPE) and in parallel with charge transfer resistance (Rct) and Warburg diffusion element. […]

Or22a [2] = target: T1, Or22a; assay: QCM-D sensor with Or22a liposomes (Example 6); type: binding; details: 1.6 to 200 μM
Procedure: (§1) Gold (100 nm) sensor crystals were sonicated in ethanol and milli-Q water for 15 minutes each respectively. A 5:1:1 volume ratio of milli-Q water, ammonia (25%), and hydrogen peroxide (30%) was heated to 75° C. for 5 minutes and the sonicated crystals were placed in the heated solution for 5 minutes. Then the crystals were removed from the solution and rinsed with milli-Q water before drying with nitrogen gas. The clean gold crystals were thiol-functionalized by exposing them to 2 mM ethanolic solution of MHA overnight followed by washing with ethanol solution in order to remove excess or loosely bound molecules.

[3] = QCM-D control with empty liposomes (Example 6); details: empty liposomes immobilised on the QCM
Procedure: as §1, with “molecules. The SAM functionalized crystals were then placed into the Q-sense analyser instrument (Biolin Scientific) chamber and flowed with the NHS/EDC, OR22a/liposomes and various concentrations of methyl hexanoate (1.6 μM, 8 μM, 40 μM, 200 μM and 1 mM) in PBS buffer solution to measure the changes in frequency (Δf) and dissipation (ΔD) values.” for “molecules.”

For `CCCCCC(=O)OC` [methyl hexanoate], the EC50 (Or22a [1]) was roughly 10 nM, the “Sensitivity limit (lowest detectable concentration)” value (Or22a [1]; signal/noise >3) was 280 pM and the “change in oscillation frequency” value (Or22a [2]) was “increase in the frequency”. The “increase in oscillation frequency” value [3] was “not observed”.
